Each structure is given as a SMILES string.

In one experiment the test system is mammal α-glucosidases. Also on record: method as in PMID 28422509. The settings on record: cited from earlier work.
Experiment [1] deals with T1, protein tyrosine phosphatase 1B (PTP-1B) (Homo sapiens, UniProt P18031).
T1 construct: made in house
T1 sequence (P18031 1-435): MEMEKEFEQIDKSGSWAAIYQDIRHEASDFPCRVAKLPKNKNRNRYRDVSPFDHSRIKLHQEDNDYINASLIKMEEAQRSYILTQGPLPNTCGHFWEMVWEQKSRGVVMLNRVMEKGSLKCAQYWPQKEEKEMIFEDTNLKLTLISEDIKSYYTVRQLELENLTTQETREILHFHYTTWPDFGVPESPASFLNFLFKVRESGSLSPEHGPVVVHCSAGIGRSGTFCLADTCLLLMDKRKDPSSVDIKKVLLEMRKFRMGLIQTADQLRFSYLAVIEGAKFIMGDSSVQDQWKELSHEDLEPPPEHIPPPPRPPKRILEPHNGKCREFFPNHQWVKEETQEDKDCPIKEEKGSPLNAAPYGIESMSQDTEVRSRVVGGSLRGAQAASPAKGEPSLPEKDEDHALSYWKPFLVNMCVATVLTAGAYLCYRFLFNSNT
The experiment is described as follows: Protein tyrosine phosphatase 1B inhibition assay (pNPP). The class given is biochemical. To be noted: for IC50: hPTP-1B, pNPP substrate, three independent determinations, read-out: PTP-1B inhibitory activity expressed as IC50 (converted). As to the method: The expression and purification of hPTP-1B was performed as previously described. […] Aliquots of 0–10 μL of testing materials (triplicated) were incubated for 5 min with 20 μL of enzyme stock solution in Tris-HCl (22 nM). After incubation, 10 μL of p-nitrophenylphosphate (pNPP; 5 mM) was added and further incubated for 15 min at 25 °C; then, the absorbance was determined (λmax 415 nm). For all samples, the inhibitory activity was determined as a percentage in comparison to the blank (Tris-HCl) according to the following equation:(1) % PTP1B=(1−A415t/A415C)×100 where % PTP-1B is the percentage of inhibition, A415t is the corrected absorbance of the extracts, fraction, or compounds under testing (A415end − A415initial) and A415C is the absorbance of the blank (A415end blank − A415initial blank).

Details of experiment [2]: method as in doi:10.17129/botsci.2187. The settings on record: cited from earlier work.
The test system of another experiment is PTP-1B. More on the design: method as in PMID 22940448. The settings on record: other studies; cited from earlier work.

For `CC1CCC23COC(=O)C2=CC(OC2OC(CO)C(O)C(O)C2O)CC3C1(C)CCc1ccoc1` (stereo not drawn) [Compound 1, amarisolide], the “inhibitory activity against mammal α-glucosidases” value with mammal α-glucosidases (in vitro and in vivo) is “showed inhibitory activity”. Also, the “inhibition of α-glycosidases in vivo” value with mammal α-glucosidases was “inhibited”. The IC50 in experiment [1] was 280 µM. In addition, the antinociceptive properties entry in experiment [2] is “demonstrated”.

`COc1cc(-c2cc(=O)c3c(O)c(O)c(OC)cc3o2)ccc1O` [Compound 2, 5,6,4′-trihydroxy-7,3′-dimethoxyflavone]: the IC50 in experiment [1] is 189 µM.

With `O=c1cc(-c2ccc(O)c(O)c2)oc2cc(O)c(O)c(O)c12` [Compound 3, 6-hydroxyluteolin], the IC50 in experiment [1] is 80.1 µM.

As for `C[C@@H]1O[C@@H](OC[C@H]2O[C@@H](Oc3c(-c4ccc(O)c(O)c4)oc4cc(O)cc(O)c4c3=O)[C@H](O)[C@@H](O)[C@@H]2O)[C@H](O)[C@H](O)[C@H]1O` [Compound 4, rutin], the IC50 in experiment [1] is 323 µM.

With `O=C(/C=C/c1ccc(O)c(O)c1)O[C@H](Cc1ccc(O)c(O)c1)C(=O)O` [Compound 5, rosmarinic acid], the IC50 in experiment [1] was 137 µM.

As for `O=c1c(O[C@@H]2O[C@H](CO)[C@@H](O)[C@H](O)[C@H]2O)c(-c2ccc(O)c(O)c2)oc2cc(O)cc(O)c12` [Compound 6, isoquercitrin], in experiment [1], the IC50 is 260 µM.

Regarding `COc1cc2oc(-c3ccc(O)c(O)c3)cc(=O)c2c(O)c1O` [Compound 7, pedalitin], the “inhibition of α-glycosidases in vivo” value in the experiment on mammal α-glucosidases was “inhibited”. The IC50 in experiment [1] was 62 µM. Further, the antinociceptive properties entry in experiment [2] is recorded as “demonstrated”.

Regarding `C[C@@H]1CC[C@@]23COC(=O)C2=C[C@@H](O[C@@H]2O[C@H](CO)[C@@H](O)[C@H](O)[C@H]2O)C[C@@H]3[C@@]1(C)CCC1=CC(=O)OC1O` (stereo partly drawn) [Compound 8a,b, (2S,5S,8R,9R,10R,14R,S)-2-(O-β-D-glucopyranosyl)-neo-clerodan-14-hydroxy-3, 13-diene-14,15;18,19-diolide], the IC50 in experiment [1] is 514 µM.

Take `C[C@H]1[C@H](C)CC[C@]2(C(=O)O)CC[C@]3(C)C(=CC[C@@H]4[C@@]5(C)CC[C@H](O)C(C)(C)[C@@H]5CC[C@]43C)[C@H]12` [UA, ursolic acid, reference compound]: in experiment [1] (ratio of PTP-1B IC50, UA vs compound 7), the “times more active than compound 7 experimentally” value came out at 2.2 times. Also, in the experiment with PTP-1B, the IC50 was […].
